Tests used:
[1] = Viscosity of the liquid epoxy resin; assay type: physicochemical; settings: epoxy resin as obtained
Experimental: In a flask equipped with a thermometer, a dropping funnel, a condenser tube, and a stirrer, while being purged with nitrogen gas, 43 g of 2,4,4′-trihydroxybiphenyl, 295 g of epichlorohydrin, and 103 g of n-butanol were charged and dissolved. After the temperature was raised to 40° C., 53 g of a 48% by mass sodium hydroxide aqueous solution was added over 8 hours. The temperature was then further raised to 50° C., and the mixture was allowed to react for further 1 hour. After the completion of the reaction, 83 g of water was added, the mixture was allowed to stand, and then the lower layer was disposed. After that, unreacted epichlorohydrin was removed by distillation at 150° C. under reduced pressure. To the obtained crude epoxy resin, 118 g of methyl isobutyl ketone was added to dissolve the epoxy resin. To the solution, 67 g of a 10% by mass sodium hydroxide aqueous solution was further added, the mixture was allowed to react at 80° C. for 2 hours, and then washing with water was repeated three times until the pH of the washing liquid became neutral. Next, the system was dehydrated by azeotropic distillation, and subjected to microfiltration, followed by removing the solvent by distillation under reduced pressure, whereby 63 g of 2,4,4′-triglycidyloxybiphenyl (A-1) which was the target epoxy resin was obtained. […]

[2] = Melt viscosity at 150° C. (ASTM D4287, ICI viscometer method); assay type: physicochemical; settings: measurement temperature 150° C.
Experimental: 1) Melt viscosity at 150° C.: measured by the following apparatus according to ASTM D4287.
Apparatus name: MODEL CV-1S manufactured by Codex

Row | viscosity of liquid form [1] [Pa-s] | melt viscosity [2] [dPa·s] | Structure (SMILES)
1 | 943 | 0.14 | c1cc(-c2ccc(OCC3CO3)cc2OCC2CO2)ccc1OCC1CO1 (stereo not shown) [Example A-1, 2,4,4′-triglycidyloxybiphenyl]
2 | – | 0.27 | c1cc(-c2cc(OCC3CO3)cc(OCC3CO3)c2)ccc1OCC1CO1 (stereo not shown) [Example A-2, 3,4′,5-triglycidyloxybiphenyl]

Row | Structure (SMILES) | viscosity of liquid form [1] [Pa-s] | melt viscosity [2] [dPa·s]
3 | c1c(OCC2CO2)cc(-c2cc(OCC3CO3)cc(OCC3CO3)c2)cc1OCC1CO1 (stereo not shown) [Example A-3, 3,3′,5,5′-tetraglycidyloxybiphenyl] | – | 0.57

— patent US20170158807A1, “EPOXY RESIN COMPOSITION FOR ELECTRONIC MATERIAL, CURED PRODUCT THEREOF AND ELECTRONIC MEMBER” (DIC CORPORATION, priority 2014, published 2017)
